Experimental data taken from patent publication US20120202690A1, “HERBICIDAL COMPOUNDS” (SYNGENTA LIMITED, priority 2009, published 2012).

What was measured:
Type in all cases: in vivo
[1] = tested on: Alopecurus myosuroides (ALOMY); assay: Pre-emergence biological efficacy, glasshouse, 1000 g/ha, evaluated after 13 days (100=total damage to plant; 0=no damage to plant); conditions: Alopecurus myosuroides, 312 h, rate 1,000 g/ha, read-out: Percentage damage caused to weed species, pre-emergence, ALOMY
Outline: (§1)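 Test species are sown into pots of standard soil. Plants then grow in the glasshouse under controlled conditions (24/16° C. day/night, 14 hours light, 65% humidity) and receive water twice a day.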

[2] = tested on: Amaranthus retroflexus (AMARE); assay: as above; conditions: Amaranthus retroflexus, 312 h, rate 1,000 g/ha, read-out: Percentage damage caused to weed species, pre-emergence, AMARE
Outline: as §1

[3] = tested on: Echinochloa crus-galli (ECHCG); assay: as above; conditions: Echinochloa crus-galli, 312 h, rate 1,000 g/ha, read-out: Percentage damage caused to weed species, pre-emergence, ECHCG
Outline: as §1

[4] = tested on: Ipomoea hederaceae (IPOHE); assay: as above; conditions: Ipomoea, 312 h, rate 1,000 g/ha, read-out: Percentage damage caused to weed species, pre-emergence, IPOHE
Outline: as §1

Setaria faberi (SETFA) [5] = assay: as above; conditions: Setaria faberi, 312 h, rate 1,000 g/ha, read-out: Percentage damage caused to weed species, pre-emergence, SETFA
Outline: as §1

Solanum nigrum (SOLNI) [6] = assay: as above; conditions: Solanum nigrum, 312 h, rate 1,000 g/ha, read-out: Percentage damage caused to weed species, pre-emergence, SOLNI
Outline: as §1

[7] = tested on: Alopecurus myosuroides (ALOMY); assay: Post-emergence biological efficacy, glasshouse, 500 or 1000 g/ha, evaluated after 13 days (100=total damage to plant; 0=no damage to plant); conditions: Alopecurus myosuroides, 312 h, rate 1,000 g/ha, read-out: Percentage damage caused to weed species, post-emergence, ALOMY
Outline: (§2)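 Standard soil, potted from seed; post-emergence treatment; glasshouse 24/16° C. (day/night), 14 h light, 65% humidity; watering twice daily.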

[8] = tested on: Amaranthus retroflexus (AMARE); assay: as above; conditions: Amaranthus retroflexus, 312 h, rate 1,000 g/ha, read-out: Percentage damage caused to weed species, post-emergence, AMARE
Outline: as §2

[9] = tested on: Echinochloa crusgaffi (ECHCG); assay: as above; conditions: Echinochloa, 312 h, rate 1,000 g/ha, read-out: Percentage damage caused to weed species, post-emergence, ECHCG
Outline: as §2

[10] = tested on: Ipomoea hederaceae (IPOHE); assay: as above; conditions: Ipomoea, 312 h, rate 1,000 g/ha, read-out: Percentage damage caused to weed species, post-emergence, IPOHE
Outline: as §2

Setaria faberi (SETFA) [11] = assay: as above; conditions: Setaria faberi, 312 h, rate 1,000 g/ha, read-out: Percentage damage caused to weed species, post-emergence, SETFA
Outline: as §2

Solanum nigrum (SOLNI) [12] = assay: as above; conditions: Solanum nigrum, 312 h, rate 1,000 g/ha, read-out: Percentage damage caused to weed species, post-emergence, SOLNI
Outline: as §2

SMILES	pest or weed control at 1000 g/ha [1] [%]	pest or weed control at 1000 g/ha [2] [%]	pest or weed control at 1000 g/ha [3] [%]	pest or weed control at 1000 g/ha [4] [%]	pest or weed control at 1000 g/ha (Setaria faberi (SETFA) [5]) [%]	pest or weed control at 1000 g/ha (Solanum nigrum (SOLNI) [6]) [%]	pest or weed control at 1000 g/ha [7] [%]	pest or weed control at 1000 g/ha [8] [%]	pest or weed control at 1000 g/ha [9] [%]	pest or weed control at 1000 g/ha [10] [%]	pest or weed control at 1000 g/ha (Setaria faberi (SETFA) [11]) [%]	pest or weed control at 1000 g/ha (Solanum nigrum (SOLNI) [12]) [%]
CCOCCOC(=O)c1nc(-c2ccc(Cl)c(OC)c2F)cc2[nH]cc(C)c12 [Compound 22-82, 6-(4-Chloro-2-fluoro-3-methoxyphenyl)-4-[(2-ethoxy)-ethoxycarbonyl]-3-methyl-1H-pyrrolo[3,2-c]pyridine]	10	70	20	90	0	90	20	80	20	40	40	90
CCCCOCCOC(=O)c1nc(-c2ccc(Cl)c(OC)c2F)cc2[nH]cc(C)c12 [Compound 22-83]	20	0	20	80	10	80	20	90	20	60	40	90
CCCCOCC(C)OC(=O)c1nc(-c2ccc(Cl)c(OC)c2F)cc2[nH]cc(C)c12 (stereo not drawn) [Compound 22-84, 4-[(1-n-Butoxy)-prop-2-yloxycarbonyl]-6-(4-chloro-2-fluoro-3-methoxyphenyl)-3-methyl-1H-pyrrolo[3,2-c]pyridine]	20	40	20	80	10	70	20	80	20	40	30	90
COCCOCCOC(=O)c1nc(-c2ccc(Cl)c(OC)c2F)cc2[nH]cc(C)c12 [Compound 22-85, 6-(4-Chloro-2-fluoro-3-methoxyphenyl)-4-{2-[(2-methoxy)-ethoxy]-ethoxycarbonyl}-3-methyl-1H-pyrrolo[3,2-c]pyridine]	10	100	10	80	10	100	30	90	20	40	20	90
COc1c(Cl)ccc(-c2cc3[nH]cc(C)c3c(C(=O)OCc3ccccc3)n2)c1F [Compound 22-86, 4-Benzyloxycarbonyl-6-(4-chloro-2-fluoro-3-methoxyphenyl)-3-methyl-1H-pyrrolo[3,2-c]pyridine]	0	0	0	0	0	10	10	40	10	40	0	70
COc1c(Cl)ccc(-c2cc3[nH]cc(C)c3c(C(=O)OCc3ccco3)n2)c1F [Compound 22-87, 6-(4-Chloro-2-fluoro-3-methoxyphenyl)-4-(2-furanyl-methoxycarbonyl)-3-methyl-1H-pyrrolo[3,2-c]pyridine]	10	20	10	80	10	70	20	80	10	70	40	90
COc1c(Cl)ccc(-c2cc3[nH]cc(C)c3c(C(=O)OCC3CCCO3)n2)c1F (stereo not drawn) [Compound 22-88, 6-(4-Chloro-2-fluoro-3-methoxyphenyl)-3-methyl-4-(tetrahydrofuran-2-yl-methoxycarbonyl)-1H-pyrrolo[3,2-c]pyridine]	10	100	0	50	10	100	30	80	20	60	40	90
COC(=O)c1nc(Cl)cc2[nH]ccc12 [Compound 22-122, 6-chloro-4-methoxycarbonyl-1H-pyrrolo[3,2-c]pyridine]	0	0	0	0	0	0	0	60	0	10	0	20
COC(=O)c1nc(Cl)cc2[nH]cc(C)c12 [Compound 22-124, 6-chloro-4-methoxycarbonyl-3-methyl-1H-pyrrolo[3,2-c]pyridine]	70	100	20	100	30	100	30	80	20	80	40	90
COC(=O)c1nc(Cl)cc2[nH]cc(Cl)c12 [Compound 22-132, 3,6-dichloro-4-methoxycarbonyl-1H-pyrrolo[3,2-c]pyridine]	0	0	0	40	0	10	0	50	0	50	0	60
COC(=O)c1nc(-c2ccc(Cl)c(OC)c2F)cc2c1ccn2Cc1ccco1 [Compound 32-62, 6-(4-Chloro-2-fluoro-3-methoxyphenyl)-1-(2-furanyl-methyl)-4-methoxycarbonyl-1H-pyrrolo[3,2-c]pyridine]	30	80	30	20	20	80	10	80	50	70	40	80
COC(=O)c1nc(-c2ccc(Cl)c(OC)c2F)cc2c1c(C)cn2C(=O)C(C)(C)C [Compound 37-64, 1-t-Butylcarbonyl-6-(4-chloro-2-fluoro-3-methoxyphenyl)-4-methoxycarbonyl-3-methyl-1H-pyrrolo[3,2-c]pyridine]	0	0	0	0	0	0	0	0	0	40	0	50
